Source: patent publication EP1285920A1, “C10 Ester sustituted taxanes as antitumor agents” (Florida State University Research Foundation, Inc., priority 2001, dated 2003)
Like-named read-outs stand apart in the source and are kept apart here.

How the values were obtained:
HCT116 = assay: In Vitro cytotoxicity measured by the cell colony formation assay; assay type: cell-based, human; details: Homo sapiens, HCT-116; read-out: IN VITRO ID 50 HCT116
Procedure, shortened: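 Four hundred cells per dish in McCoy's 5a medium with 10% FBS were allowed to attach for 5 h at 37 °C. They were then exposed to compound for 72 h at 37 °C, added as a 10× stock made fresh in medium. After HBSS rinsing and refeeding, colonies were counted after 7 days.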

DU145 prostate carcinoma = system: DU145 prostate carcinoma
From the text: Dosing was initiated on Day 1. […] Treatment groups are detailed in Table 5.

A375 melanoma = system: A375 melanoma
Method: Dosing was initiated on Day 1. […] Taxotere was given i.v. on a qd x 1 schedule at a dose of 70 mg/kg. […] The study was terminated on Day 60. Treatment groups are detailed in Table 9.

VM46 colon carcinoma = system: VM46 colon carcinoma
Method: Dosing was initiated on Day 1. […] Taxotere was given i.v. at a dose of 70 mg/kg on a qd x 1 schedule.

[1] = system: Panc-1 pancreatic carcinoma; assay: In vivo evaluation against Panc-1 human pancreatic carcinoma (Example 17)
[2] = number of 5 mice, i.v. qd x 1 at estimated MTD (Taxol 24 mg/kg split), Day 91
[3] = number of mice, i.v. qd x 1 at estimated MTD (Taxol 24 mg/kg, Taxotere 70 mg/kg), 6 mice/group (Taxotere 7), Day 60
[4] = number of mice, i.v. qd x 1, mg/kg: Taxol 24, 0499 77, 0503 72.6, 0670 123.1, 0706 107.6, 0838 72.6, 0854 46.6, 0983 67.4, Taxotere 70, 6 mice/group, Day 64
[5] = Panc-1 (Example 17), i.v. qd x 1, six mice per group
[6] = number of mice, i.v. qd x 1, mg/kg: Taxol 36, 0499 77, 0503 72.6, 0670 123.1, 0706 107.6, 0838 72.6, 0854 76.9, 6 mice/group, Day 60

CCC(=O)O[C@H]1C(=O)[C@@]2(C)[C@H]([C@H](OC(=O)c3ccccc3)[C@]3(O)C[C@H](OC(=O)[C@H](O)[C@H](C=C(C)C)NC(=O)OC(C)(C)C)C(C)=C1C3(C)C)[C@]1(OC(C)=O)CO[C@@H]1C[C@@H]2O [Compound 0499]
IC50 (HCT116): < 1 nM | Mean Score (DU145 prostate carcinoma; i.v. qd x 1 at estimated MTD (Taxol 24 mg/kg split), 5 mice/group, Day 91): 4.4 ± 1.4 | MDS (n) (DU145 prostate carcinoma; mean days of survival until tumor reached 1.5 g, i.v. qd x 1 at estimated MTD (Taxol 24 mg/kg as two split doses), 5 mice/group, study ended Day 91): 67.2 ± 8.3 (3) days | Stable Disease (DU145 prostate carcinoma; number of 5 mice, tumor did not reach 1.5 g by end of study, i.v. qd x 1 at estimated MTD (Taxol 24 mg/kg split), Day 91): 1 | Toxic Deaths (DU145 prostate carcinoma; number of 5 mice, i.v. qd x 1 at estimated MTD (Taxol 24 mg/kg as two split doses), Day 91): 0 | Complete Response (DU145 prostate carcinoma; [2]): 1 | Partial Response (DU145 prostate carcinoma; [2]): 0 | Survivors (DU145 prostate carcinoma; [2]): 2 | Stable Disease (A375 melanoma; A375, i.v. qd x 1, six mice per group): one | MDS (n) (A375 melanoma; mean days of survival until neoplasm reached 2.0 g, i.v. qd x 1 at estimated MTD (Taxol 24 mg/kg, Taxotere 70 mg/kg), 6 mice/group (Taxotere 7), terminated Day 60): 30.5 ± 3.5 (3) days | Toxic Deaths (A375 melanoma; number of mice, i.v. qd x 1 at estimated MTD (Taxol 24 mg/kg, Taxotere 70 mg/kg), 6 mice/group (Taxotere 7)): 2 | Complete Response (A375 melanoma; [3]): 0 | Partial Response (A375 melanoma; [3]): 0 | Stable Disease (A375 melanoma; [3]): 1 | Survivors (A375 melanoma; [3]): 1 | Mean Score (A375 melanoma; tumor scoring system, i.v. qd x 1 at estimated MTD (Taxol 24 mg/kg, Taxotere 70 mg/kg), 6 mice/group (Taxotere 7)): 2.3 ± 0.9 | tolerability (VM46 colon carcinoma; VM46, i.v. qd x 1): well-tolerated | Toxic Deaths (VM46 colon carcinoma; VM46, i.v. qd x 1, six mice per group): no toxic deaths | Mean Score (VM46 colon carcinoma; iv): 2 ± 0.3 | MDS (n) (VM46 colon carcinoma; iv, 1536 h): 41.9 ± 4.2 (5) days | Toxic Deaths (VM46 colon carcinoma; number of mice, i.v. qd x 1, mg/kg: Taxol 24, 0499 77, 0503 72.6, 0670 123.1, 0706 107.6, 0838 72.6, 0854 46.6, 0983 67.4, Taxotere 70, 6 mice/group): 0 | Complete Response (VM46 colon carcinoma; [4]): 0 | Partial Response (VM46 colon carcinoma; [4]): 0 | Stable Disease (VM46 colon carcinoma; [4]): 1 | Survivors (VM46 colon carcinoma; [4]): 1 | MDS ([1]; Panc-1 (Example 17), i.v. qd x 1 (compounds estimated MTD; Taxol 36 mg/kg split), days until tumor 1.5 g, ended Day 60): 47 to 56 days | Partial Response [1, 5]: 1 | Stable Disease [1, 5]: one | complete responses [1, 5]: 2 | MDS (n) ([1]; mean days of survival until neoplasm reached 1.5 g, i.v. qd x 1, mg/kg: Taxol 36, 0499 77, 0503 72.6, 0670 123.1, 0706 107.6, 0838 72.6, 0854 76.9, 6 mice/group, terminated Day 60): 56.1 ± 1.0 (2) days | Toxic Deaths ([1]; number of mice, i.v. qd x 1, mg/kg: Taxol 36, 0499 77, 0503 72.6, 0670 123.1, 0706 107.6, 0838 72.6, 0854 76.9, 6 mice/group): 0 | Complete Response [1, 6]: 2 | Partial Response [1, 6]: 1 | Stable Disease [1, 6]: 1 | Survivors [1, 6]: 4 | Mean Score ([1]; tumor scoring system, i.v. qd x 1, mg/kg: Taxol 36, 0499 77, 0503 72.6, 0670 123.1, 0706 107.6, 0838 72.6, 0854 76.9, 6 mice/group): 7.4 ± 1.4
